Data published in ChEMBL document CHEMBL1201862, “PubChem BioAssay data set” (2004).
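Dose response: 5 concentrations. Exposure: 48 h. Format: 96-well plates. Endpoint: linear interpolation; highest concentration if not reached. Abbreviation: GI50, concentration required for 50% inhibition of growth.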 Active and inactive are the calls of the source. Cut-off read from the data, not from the text of the source: active = GI50 up to about 1.1 µM and inactive = higher.

Experiments:
Assay in all cases: NCI-60 cell line screen, 48 h
[1] = system: 786-0
[2] = system: ACHN
[3] = system: CAKI-1
[4] = system: DU-145
[5] = system: EKVX
[6] = system: HCT-15
[7] = system: HL-60
[8] = system: Hs-578T
[9] = system: K562
[10] = system: KM12
[11] = system: MCF7
[12] = system: MDA-N
[13] = system: MOLT-4
[14] = system: Malme-3M
[15] = system: OVCAR-3
[16] = system: PC-3
[17] = system: SK-MEL-5
[18] = system: SK-OV-3
[19] = system: T47D
[20] = system: UACC-62

Row | Structure (SMILES) | GI50 [1] | GI50 [2] | GI50 [3] | GI50 [4] | GI50 [5] | GI50 [6] [µM] | GI50 [7] | GI50 [8] | GI50 [9] | GI50 [10] | GI50 [11] | GI50 [12] | GI50 [13] | GI50 [14] | GI50 [15] | GI50 [16] | GI50 [17] | GI50 [18] | GI50 [19] | GI50 [20]
1 | CCOC(=O)c1c2ccccc2n2c(N)c(C(N)=O)nnc12 | 21.9 µM (inactive) | 6.07 µM (inactive) | 32.8 µM (inactive) | > 100 µM (inactive) | 18 µM (inactive) | 78.9 | > 100 µM (inactive) | 4.36 µM (inactive) | > 100 µM (inactive) | > 100 µM (inactive) | 17.7 µM (inactive) | > 100 µM (inactive) | > 100 µM (inactive) | 70.8 µM (inactive) | > 100 µM (inactive) | 60 µM (inactive) | 74.3 µM (inactive) | 13.9 µM (inactive) | 43.1 µM (inactive) | 19.9 µM (inactive)
2 | N#C[BH2-][n+]1cn(C2CC(OP(=O)(O)OCC3OC(n4cnc5c(=O)[nH]c(N)nc54)CC3O)C(CO)O2)c2nc(N)[nH]c(=O)c21 (stereo not given) | > 100 µM (inactive) | > 100 µM (inactive) | > 100 µM (inactive) | > 100 µM (inactive) | > 100 µM (inactive) | > 100 | > 100 µM (inactive) | > 100 µM (inactive) | 55.5 µM (inactive) | > 100 µM (inactive) | 62.8 µM (inactive) | > 100 µM (inactive) | 81.8 µM (inactive) | 70.5 µM (inactive) | > 100 µM (inactive) | > 100 µM (inactive) | > 100 µM (inactive) | > 100 µM (inactive) | > 100 µM (inactive) | > 100 µM (inactive)
3 | CC(O)CCNC(=O)Nc1c(C(F)(F)F)cc(-c2ccccc2)[nH]c1=O (stereo not given) | > 100 µM (inactive) | > 100 µM (inactive) | > 100 µM (inactive) | > 100 µM (inactive) | > 100 µM (inactive) | > 100 | 67.9 µM (inactive) | > 100 µM (inactive) | > 100 µM (inactive) | > 100 µM (inactive) | > 100 µM (inactive) | > 100 µM (inactive) | > 100 µM (inactive) | 47.3 µM (inactive) | > 100 µM (inactive) | > 100 µM (inactive) | > 100 µM (inactive) | > 100 µM (inactive) | > 100 µM (inactive) | > 100 µM (inactive)
4 | O=C(O)C1CCN(Cc2oc(CO)cc(=O)c2O)C1 (stereo not given) | > 100 µM (inactive) | > 100 µM (inactive) | > 100 µM (inactive) | > 100 µM (inactive) | > 100 µM (inactive) | > 100 | > 100 µM (inactive) | > 100 µM (inactive) | > 100 µM (inactive) | > 100 µM (inactive) | > 100 µM (inactive) | > 100 µM (inactive) | > 100 µM (inactive) | > 100 µM (inactive) | > 100 µM (inactive) | > 100 µM (inactive) | > 100 µM (inactive) | > 100 µM (inactive) | > 100 µM (inactive) | > 100 µM (inactive)
5 | NC(=S)N/N=C/c1ncccc1N [TRIAPINE] | 0.314 µM (active) | 0.282 µM (active) | 0.521 µM (active) | 0.681 µM (active) | 7.55 µM (inactive) | 1.97 | 1.03 µM (active) | > 10 µM (inactive) | 3.13 µM (inactive) | 4.59 µM (inactive) | 0.452 µM (active) | 2.65 µM (inactive) | 0.438 µM (active) | 1.87 µM (inactive) | 2.25 µM (inactive) | 1.57 µM (inactive) | 0.968 µM (active) | > 8.55 µM (inactive) | 4.39 µM (inactive) | 0.546 µM (active)
6 | COc1cc(/C=C2\CC/C(=C\c3cc(OC)c(O)c(OC)c3)C2=O)cc(OC)c1O | 4.9 µM (inactive) | 2.05 µM (inactive) | 2.72 µM (inactive) | 2.21 µM (inactive) | 3.13 µM (inactive) | 1.4 | 1.51 µM (inactive) | 2.09 µM (inactive) | 2.76 µM (inactive) | 1.48 µM (inactive) | 1.91 µM (inactive) | 2.27 µM (inactive) | 1.02 µM (active) | 0.345 µM (active) | 2.2 µM (inactive) | 2.62 µM (inactive) | 1.95 µM (inactive) | 3.81 µM (inactive) | 2.32 µM (inactive) | 1.35 µM (inactive)
7 | COC1(CC[C@@H](C)COC2OC(CO)C(O)C(O)C2O)O[C@H]2C[C@H]3[C@@H]4CC=C5C[C@@H](OC6OC(CO)C(O)C(OC7OC(CO)C(O)C(O)C7O)C6OC6OC(C)C(O)C(O)C6O)CC[C@]5(C)[C@H]4CC[C@]3(C)[C@H]2[C@@H]1C (stereo not given in full) | 2.75 µM (inactive) | 14.5 µM (inactive) | 6.35 µM (inactive) | 3.97 µM (inactive) | 15.9 µM (inactive) | 3.28 | 6.19 µM (inactive) | 8.51 µM (inactive) | > 20.6 µM (inactive) | 2.08 µM (inactive) | 16 µM (inactive) | 8.63 µM (inactive) | 16 µM (inactive) | 3.11 µM (inactive) | 16.8 µM (inactive) | 6.82 µM (inactive) | 9.84 µM (inactive) | 4.01 µM (inactive) | 4.67 µM (inactive) | 3.19 µM (inactive)
8 | CN1CN(c2ccccc2)C2(CCNCC2)C1=O | > 100 µM (inactive) | > 100 µM (inactive) | > 100 µM (inactive) | > 100 µM (inactive) | > 100 µM (inactive) | > 100 | > 100 µM (inactive) | > 100 µM (inactive) | > 100 µM (inactive) | > 100 µM (inactive) | > 100 µM (inactive) | > 100 µM (inactive) | > 100 µM (inactive) | > 100 µM (inactive) | > 100 µM (inactive) | > 100 µM (inactive) | > 100 µM (inactive) | > 100 µM (inactive) | > 100 µM (inactive) | > 100 µM (inactive)
9 | COc1ccc2oc3c(C)cc4c(OC)nnc(OC)c4c3c2c1 | 7.52 µM (inactive) | 5.05 µM (inactive) | 34 µM (inactive) | > 100 µM (inactive) | 17.9 µM (inactive) | 7.83 | 13.5 µM (inactive) | 31 µM (inactive) | 6.87 µM (inactive) | 27.4 µM (inactive) | 16.3 µM (inactive) | 18 µM (inactive) | 2.81 µM (inactive) | 9.95 µM (inactive) | > 100 µM (inactive) | 12.8 µM (inactive) | 6.15 µM (inactive) | > 100 µM (inactive) | 29.9 µM (inactive) | 9.31 µM (inactive)
10 | COc1ccc([N+](=O)[O-])c2c(NCCCN(C)C)ccnc12 | 8.36 µM (inactive) | 2.86 µM (inactive) | 8.39 µM (inactive) | 5.42 µM (inactive) | 4.92 µM (inactive) | 1.85 | 5.14 µM (inactive) | 6.35 µM (inactive) | 1.77 µM (inactive) | 7 µM (inactive) | 5.01 µM (inactive) | 12.1 µM (inactive) | 1.8 µM (inactive) | 2.43 µM (inactive) | 2.39 µM (inactive) | 4.32 µM (inactive) | 2.12 µM (inactive) | 11.2 µM (inactive) | 3.52 µM (inactive) | 3.61 µM (inactive)
11 | Nc1c2cc3ccc2nc2ccc(cc12)OCCOCCOCCOCCOCCOCCO3 | > 10 µM (inactive) | > 10 µM (inactive) | > 10 µM (inactive) | > 10 µM (inactive) | > 10 µM (inactive) | > 10 | > 10 µM (inactive) | > 10 µM (inactive) | > 10 µM (inactive) | > 10 µM (inactive) | > 10 µM (inactive) | > 10 µM (inactive) | > 10 µM (inactive) | > 10 µM (inactive) | > 10 µM (inactive) | > 10 µM (inactive) | > 10 µM (inactive) | > 10 µM (inactive) | > 10 µM (inactive) | > 10 µM (inactive)
12 | C/C(=N/NC(=S)N1CCCCC1)c1ccccc1O | > 31.6 µM (inactive) | > 31.6 µM (inactive) | > 31.6 µM (inactive) | > 31.6 µM (inactive) | 29.9 µM (inactive) | > 31.6 | > 31.6 µM (inactive) | 20.1 µM (inactive) | 22.8 µM (inactive) | 26.1 µM (inactive) | 14.3 µM (inactive) | > 31.6 µM (inactive) | > 31.6 µM (inactive) | > 31.6 µM (inactive) | 16.4 µM (inactive) | 28.8 µM (inactive) | 60.8 µM (inactive) | > 31.6 µM (inactive) | 8.26 µM (inactive) | > 31.6 µM (inactive)
13 | O=C(N/N=C\c1ccc(Cl)cc1)Nc1cccc2ccccc12 | 1.98 µM (inactive) | 2.37 µM (inactive) | 2.42 µM (inactive) | 5.57 µM (inactive) | 18.7 µM (inactive) | 3.36 | 4.93 µM (inactive) | 2.67 µM (inactive) | 3.23 µM (inactive) | 2.61 µM (inactive) | 3.4 µM (inactive) | 2.21 µM (inactive) | 5.61 µM (inactive) | 4.24 µM (inactive) | 1.54 µM (inactive) | 5.97 µM (inactive) | 4.45 µM (inactive) | 2.71 µM (inactive) | 5.52 µM (inactive) | 9.48 µM (inactive)
14 | Cc1cc(C)c(-c2no/c(=N\S(=O)(=O)c3ccc(Cl)cc3)o2)c(C)c1 | > 100 µM (inactive) | > 100 µM (inactive) | > 100 µM (inactive) | > 100 µM (inactive) | > 100 µM (inactive) | > 100 | 42.1 µM (inactive) | > 100 µM (inactive) | 49.5 µM (inactive) | 57.9 µM (inactive) | 16.4 µM (inactive) | > 100 µM (inactive) | > 100 µM (inactive) | 75 µM (inactive) | > 100 µM (inactive) | > 100 µM (inactive) | 23.1 µM (inactive) | > 100 µM (inactive) | 93.3 µM (inactive) | > 100 µM (inactive)
